The target in one assay is T1, CCR2 (Homo sapiens, UniProt P41597).
T1 construct: host or cells: THP-1 cells
T1 sequence (P41597 1-360 isoform P41597-2): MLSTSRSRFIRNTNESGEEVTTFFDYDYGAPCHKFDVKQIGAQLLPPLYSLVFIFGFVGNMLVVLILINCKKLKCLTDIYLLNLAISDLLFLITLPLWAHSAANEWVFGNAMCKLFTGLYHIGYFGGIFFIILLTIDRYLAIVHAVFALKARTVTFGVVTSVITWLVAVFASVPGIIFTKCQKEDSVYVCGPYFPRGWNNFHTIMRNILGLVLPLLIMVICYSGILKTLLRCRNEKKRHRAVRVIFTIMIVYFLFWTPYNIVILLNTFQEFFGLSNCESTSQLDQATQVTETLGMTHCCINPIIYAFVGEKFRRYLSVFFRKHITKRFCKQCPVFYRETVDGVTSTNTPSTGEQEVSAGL
The assay can be described thus: MCP-1 Receptor Binding Assay in THP-1 Cells. The conditions noted are these: for IC50: THP-1 cells, 0.5 nM 125I labeled MCP-1, 2 hours at 30° C., read-out: Inhibition of MCP-1 Binding IC50. In short, it runs like this: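 Whole THP-1 cells incubated 2 h at 30° C with 0.5 nM 125I-MCP-1 and varying compound concentrations; bound radioactivity harvested on filters and counted by scintillation. Nonspecific binding with 1 μM cold MCP-1; IC50 for inhibition of binding versus vehicle.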

For assay [1], the system named is MCP-1 induced calcium ion influx in THP-1 cells. The assay can be described thus: MCP-1 Induced Calcium Mobilization in THP-1 Cells. The assay is classed as cell-based. The following applies: for IC50: 0.2 μM MCP-1, FLIPR, read-out: Inhibition of MCP-1 Induced Calcium Ion Influx IC50; for inhibition at 25 µM: THP-1, test concentration of 25 μM, given where an IC50 value was not obtained, read-out: Inhibition of MCP-1 Induced Calcium Ion Influx, percent inhibition. As to the method: THP-1 cells were plated at a density of 8×10^5 cells/mL (100 μL/well) into poly-D lysine coated clear bottom, black 96 well plates. The cells were loaded with 5 μM fluo-3 for 45 minutes. The fluo-3 washed off and cells were incubated with varying concentrations of test compound for 15 minutes. The change in calcium ion concentration upon addition of 0.2 μM MCP-1 was determined using FLIPR and compared to vehicle.
Table 2 lists IC50 values for inhibition of MCP-1 induced influx of calcium ions.
On the technique in general: Calcium assays in cells follow changes in intracellular calcium, usually with a dye or a luminescent sensor.

[2] abbreviates: Homo sapiens, THP-1, THP-1 cells.

The record followed here is patent US20070197590A1, “SUBSTITUTED DIPIPERIDINE CCR2 ANTAGONISTS” (priority 2006, published 2007).

Molecules are shown by their SMILES. Like-named read-outs stand apart in the source and are kept apart here.

By IC50 is commonly meant the concentration that gives 50% inhibition. `COc1ccc(C2CCN(CC(CO)C3CCN(C(=O)Nc4ccc(Cl)c(Cl)c4)CC3)CC2)cc1` (stereo not shown) [Compound 44, 4-{1-hydroxymethyl-2-[4-(4-methoxy-phenyl)-piperidin-1-yl]-ethyl}-piperidine-1-carboxylic acid (3,4-dichloro-phenyl)-amide]: the figures for the IC50 (at CCR2; in assay [1] (setting [2])) were 1.8 µM and 0.72 µM, respectively.
In general, inhibition refers to the relative decrease from the control value, in per cent. With `O=C(Nc1ccc(Cl)c(Cl)c1)N1CCC(CC(CO)N2CCC(c3c[nH]c4ccccc34)CC2)CC1` (stereo not shown) [Compound 58, 4-{3-hydroxy-2-[4-(1H-indol-3-yl)-piperidin-1-yl]-propyl}-piperidine-1-carboxylic acid (3,4-dichloro-phenyl)-amide], the concentration for half-maximal inhibition (IC50) on CCR2 came out at 5 µM. Besides, the inhibition at 25 µM in assay [1] (Homo sapiens) was determined as 42%.
`COc1ccc(C2CCN(CC(NC(C)=O)C3CCN(C(=O)C=Cc4cc(F)c(F)c(F)c4)CC3)CC2)cc1` (stereo not shown) [Compound 66, N-(2-[4-(4-methoxy-phenyl)-piperidin-1-yl]-1-{1-[3-(3,4,5-trifluoro-phenyl)-acryloyl]-piperidin-4-yl}-ethyl)-acetamide]: the concentration for half-maximal inhibition (IC50) was 0.42 µM on CCR2 and 1.1 µM in assay [1] (setting [2]).
Regarding `O=C(/C=C/c1cc(F)cc(F)c1)N1CCC(O)(C(O)CN2CCC(c3c[nH]c4ccccc34)CC2)CC1` (stereo not shown) [Compound 71], the IC50 at CCR2 came out at 0.04 µM; in assay [1] (setting [2]) it was 0.2 µM.
Take `O=C(/C=C/c1cccc(F)c1)N1CCC(O)(C(O)CN2CCC(c3c[nH]c4ccccc34)CC2)CC1` (stereo not shown) [Compound 76]: the IC50 amounted to 0.47 µM on CCR2 and 0.165 µM in assay [1] (setting [2]).
Regarding `O=C(/C=C/c1cccc(C(F)(F)F)c1)N1CCC(O)(C(O)CN2CCC(c3c[nH]c4ccccc34)CC2)CC1` (stereo not shown) [Compound 77], the IC50 on CCR2 amounted to 0.5 µM; in assay [1] (setting [2]), 0.085 µM.
The matching figures for `O=C(/C=C/c1ccsc1)N1CCC(O)(C(O)CN2CCC(c3c[nH]c4ccccc34)CC2)CC1` (stereo not shown) [Compound 79]: 0.81 µM and 7.4 µM.
On to `O=C(Nc1ccc(F)c(F)c1)N1CCC(O)(C(O)CN2CCC(c3c[nH]c4ccccc34)CC2)CC1` (stereo not shown) [Compound 82, 4-hydroxy-4-{1-hydroxy-2-[4-(1H-indol-3-yl)-piperidin-1-yl]-ethyl}-piperidine-1-carboxylic acid (3,4-difluoro-phenyl)-amide], for which the half-maximal inhibitory concentration (IC50) was determined as 1.3 µM at CCR2 and 2.6 µM in assay [1] (setting [2]).
As to `OC(CN1CCC(c2c[nH]c3ccccc23)CC1)C1(O)CCN(C(=S)Nc2ccc(Cl)c(Cl)c2)CC1` (stereo not shown) [Compound 84, 4-hydroxy-4-{1-hydroxy-2-[4-(1H-indol-3-yl)-piperidin-1-yl]-ethyl}-piperidine-1-carbothioic acid (3,4-dichloro-phenyl)-amide], the figures for the 50% inhibitory concentration (IC50) (on CCR2; in assay [1] (setting [2])) were 0.55 µM and 0.03 µM, respectively.
The matching figures for `O=C(/C=C/c1cc(F)c(F)c(F)c1)N1CCC(O)(C(O)CN2CCC(c3nc4ccccc4[nH]3)CC2)CC1` (stereo not shown) [Compound 87]: 0.47 µM and 3.3 µM.
Regarding `COc1ccc(C2CCN(CC(O)C3CCN(C(=S)Nc4cc(Cl)cc(Cl)c4)CC3)CC2)cc1` (stereo not shown) [Compound 89, 4-{1-hydroxy-2-[4-(4-methoxy-phenyl)-piperidin-1-yl]-ethyl}-piperidine-1-carbothioic acid (3,5-dichloro-phenyl)-amide], the 50% inhibitory concentration (IC50) on CCR2 was determined as 0.55 µM; in assay [1] (setting [2]), 1.8 µM.
On to `COc1ccc(C2CCN(CC(O)C3(O)CCN(C(=O)/C=C/c4cccc(C)c4)CC3)CC2)cc1` (stereo not shown) [Compound 95], for which the IC50 on CCR2 stood at 1.4 µM. For the same compound, the inhibition at 25 µM in assay [1] (Homo sapiens) is 53%.
As for `COc1ccc(C2CCN(CC(O)C3CCN(C(=S)Nc4cccc(Cl)c4)CC3)CC2)cc1` (stereo not shown) [Compound 102, 4-{1-hydroxy-2-[4-(4-methoxy-phenyl)-piperidin-1-yl]-ethyl}-piperidine-1-carbothioic acid (3-chloro-phenyl)-amide], the 50% inhibitory concentration (IC50) came to 0.48 µM on CCR2 and 2.5 µM in assay [1] (setting [2]).
On to `COc1ccc(C2CCN(CC(O)C3CCN(C(=S)Nc4cccc(OC)c4)CC3)CC2)cc1` (stereo not shown) [Compound 103, 4-{1-hydroxy-2-[4-(4-methoxy-phenyl)-piperidin-1-yl]-ethyl}-piperidine-1-carbothioic acid (3-methoxy-phenyl)-amide], for which the IC50 is 0.5 µM at CCR2 and 2.2 µM in assay [1] (THP-1 cells).
Take `COc1ccc(C2CCN(CC(O)C3CCN(C(=S)Nc4cccc(C(F)(F)F)c4)CC3)CC2)cc1` (stereo not shown) [Compound 105, 4-{1-hydroxy-2-[4-(4-methoxy-phenyl)-piperidin-1-yl]-ethyl}-piperidine-1-carbothioic acid (3-trifluoromethyl-phenyl)-amide]: the half-maximal inhibitory concentration (IC50) at CCR2 worked out at 0.54 µM; in assay [1] (THP-1 cells) it was 3.4 µM.
In the case of `COc1ccc(C2CCN(CC(O)C3CCN(C(=S)Nc4ccc(C(F)(F)F)cc4)CC3)CC2)cc1` (stereo not shown) [Compound 106, 4-{1-hydroxy-2-[4-(4-methoxy-phenyl)-piperidin-1-yl]-ethyl}-piperidine-1-carbothioic acid (4-trifluoromethyl-phenyl)-amide], the IC50 was found to be 0.76 µM at CCR2 and 2.6 µM in assay [1] (setting [2]).
As for `COc1ccc(C2CCN(CC(O)C3CCN(C(=S)Nc4ccc(Cl)c(Cl)c4)CC3)CC2)cc1` (stereo not shown) [Compound 108, 4-{1-hydroxy-2-[4-(4-methoxy-phenyl)-piperidin-1-yl]-ethyl}-piperidine-1-carbothioic acid (3,4-dichloro-phenyl)-amide], the IC50 on CCR2 was 0.21 µM; in assay [1] (THP-1 cells) it was 0.48 µM.
In the case of `COc1ccc(C2CCN(CC(O)C3(O)CCN(C(=O)/C=C/c4ccsc4)CC3)CC2)cc1` (stereo not shown) [Compound 113], the results for the IC50 (at CCR2; in assay [1] (setting [2])) were 1.6 µM and 4.9 µM, respectively.
Consider `COc1ccc(C2CCN(CC(O)C3(O)CCN(C(=O)Nc4ccc(F)c(F)c4)CC3)CC2)cc1` (stereo not shown) [Compound 114, 4-hydroxy-4-{1-hydroxy-2-[4-(4-methoxy-phenyl)-piperidin-1-yl]-ethyl}-piperidine-1-carboxylic acid (3,4-difluoro-phenyl)-amide], for which the IC50 on CCR2 was found to be 1.1 µM. For the same compound, in assay [1] (Homo sapiens), the inhibition at 25 µM was determined as 55%.
As to `COc1ccc(C2CCN(CC(O)C3(O)CCN(C(=O)Nc4cc(F)cc(F)c4)CC3)CC2)cc1` (stereo not shown) [Compound 115, 4-hydroxy-4-{1-hydroxy-2-[4-(4-methoxy-phenyl)-piperidin-1-yl]-ethyl}-piperidine-1-carboxylic acid (3,5-difluoro-phenyl)-amide], the 50% inhibitory concentration (IC50) on CCR2 is 0.91 µM. Besides, the inhibition at 25 µM in assay [1] (Homo sapiens) turned out to be 57%.
Take `COc1ccc(C2CCN(CC(O)C3(O)CCN(C(=O)Nc4ccc(Cl)c(Cl)c4)CC3)CC2)cc1` (stereo not shown) [Compound 116, 4-hydroxy-4-{1-hydroxy-2-[4-(4-methoxy-phenyl)-piperidin-1-yl]-ethyl}-piperidine-1-carboxylic acid (3,4-dichloro-phenyl)-amide]: the IC50 on CCR2 was 0.53 µM; in assay [1] (setting [2]) it was 0.84 µM.
As for `COc1ccc(C2CCN(CC(O)C3(O)CCN(C(=S)Nc4ccc(Cl)c(Cl)c4)CC3)CC2)cc1` (stereo not shown) [Compound 117, 4-hydroxy-4-{1-hydroxy-2-[4-(4-methoxy-phenyl)-piperidin-1-yl]-ethyl}-piperidine-1-carbothioic acid (3,4-dichloro-phenyl)-amide], the figures for the 50% inhibitory concentration (IC50) (on CCR2; in assay [1] (setting [2])) were 1.3 µM and 1.2 µM, respectively.
For the compound `COc1ccc(C2CCN(CC(O)C3(O)CCN(C(=S)Nc4cc(Cl)cc(Cl)c4)CC3)CC2)cc1` (stereo not shown) [Compound 118, 4-hydroxy-4-{1-hydroxy-2-[4-(4-methoxy-phenyl)-piperidin-1-yl]-ethyl}-piperidine-1-carbothioic acid (3,5-dichloro-phenyl)-amide], the IC50 on CCR2 is 1.3 µM; in assay [1] (setting [2]) it was 3.1 µM.
As for `OC(CN1CCC(c2c[nH]c3ccccc23)CC1)C1(O)CCN(c2nccc(C(F)(F)F)n2)CC1` (stereo not shown) [Compound 120, 4-{1-hydroxy-2-[4-(1H-indol-3-yl)-piperidin-1-yl]-ethyl}-1-(4-trifluoromethyl-pyrimidin-2-yl)-piperidin-4-ol], on CCR2, the IC50 was 1.9 µM. For the same compound, the inhibition at 25 µM in assay [1] (Homo sapiens) turned out to be 13%.
Take `OC(CN1CCC(c2nc3ccccc3[nH]2)CC1)C1(O)CCN(c2nccc(C(F)(F)F)n2)CC1` (stereo not shown) [Compound 121, 4-{2-[4-(1H-benzoimidazol-2-yl)-piperidin-1-yl]-1-hydroxy-ethyl}-1-(4-trifluoromethyl-pyrimidin-2-yl)-piperidin-4-ol]: the inhibition at 25 µM was determined as 50% on CCR2 (test concentration of 25 μM, given where an IC50 value was not obtained, read-out: Inhibition of MCP-1 Binding, percent inhibition) and 65% in assay [1] (Homo sapiens).
As for `Cc1ccc2[nH]cc(C3CCN(CC(O)C4(O)CCN(c5nccc(C(F)(F)F)n5)CC4)CC3)c2c1` (stereo not shown) [Compound 123, 4-{1-hydroxy-2-[4-(5-methyl-1H-indol-3-yl)-piperidin-1-yl]-ethyl}-1-(4-trifluoromethyl-pyrimidin-2-yl)-piperidin-4-ol], on CCR2, the half-maximal inhibitory concentration (IC50) is 9.4 µM. Besides, the inhibition at 25 µM in assay [1] (Homo sapiens) came to 68%.
